From patent US10955415B2, “CD247 as a biomarker for assessing the effect of chemotherapeutic and biological drugs” (YISSUM RESEARCH DEVELOPMENT COMPANY OF THE HEBREW …, priority 2011, dated 2021)
Entries after “also recorded” stand apart in the source; their conditions may differ.

How the values were obtained:
[1] = tested on: MDSCs (Gr1+CD11b+); test: MDSC accumulation in spleen and PBLs, AOM/DSS colorectal cancer (CRC) mouse model; type: in vivo; details: CRC (AOM/DSS) mice, i.p., vs untreated CRC group
Description: The mouse model for CRC was used as described in Experimental procedures. […] Mice were sacrificed at week +11, three weeks after the second DSS treatment. […] Graphs represent the percent of MDSCs presented within the spleen (FIG. 21A) and PBLs (FIG. 21C). Data from three independent experiments (n=3) is presented. […] Means and SEM are shown. *, P<0.05; **, P<0.01; ***, P<0.001.
The mouse model for CRC was established by two repeated injections of azoxymethane (AOM) (Sigma) in intervals of two weeks followed by two weekly administrations of DSS (Sigma) that was added to drinking water every two weeks for duration of about seven days. […] Mice were sacrificed at week +11, three weeks after the second DSS treatment.

[2] = tested on: CD11b+CD11c+ and CD11b+F4/80+ cells; test: Myeloid differentiation state in spleen (DCs, macrophages, APC maturation); type: in vivo; details: BCG-inflamed mice
Description: FIG. 18A-18E. Splenocytes and PBLs from mice untreated (naïve), inflamed, or inflamed and treated with 5-FU or CPT-11 were fixed, permeabilized, and double stained for the expression of CD247 (ζ-chain) (FIGS. 18A, 18B) and CD3ε-chain (FIGS. 18D, 18E), as shown by mean fluorescence intensity (MFI), measured in gated CD3^+ cells. FIG. 18C: Splenocytes from mice, naïve, inflamed and inflamed treated with 5-FU or CPT-11, were labeled with CFSE and activated with anti-CD3 and anti-CD28 antibodies or left non-activated. The proliferative response was assessed by monitoring cell divisions of gated CFSE-labeled Thy1.2+ (CD90+) T-cells. The percent of proliferating cells was calculated and compared to steady state levels of non-activated cells per each group. Data from three independent experiments is presented (n=3). Statistical analyses using t test indicated significant differences at 95%. Means and SEM are shown. *, P<0.05; **, P<0.01. FIG. 18F-18I. For the detection of myeloid differentiation state, splenocytes from each group were stained for (18F) DC11b^+CD11c^+ cells (representing DCs), (18G) DC11b^+F4/80^+ cells (representing monocytes), (18H) CD11c^+MHCII^+CD80^+ cells (representing fully differentiated […] as antigen presenting cells) and (18I) F4/80^+MHCII^+CD80^+ cells (representing fully differentiated […] as antigen presenting cells). Data from three independent experiments (n=4) is presented. Statistical analyses using t test indicated significant differences at 95%. Means and SEM are shown. *, P<0.05; **, P<0.01; ***, P<0.001. Abbreviations: Nor. (normal), Rel. (relative), Inf. (inflamed), ce. Pro. (cell proliferation)
(§1) Isolated splenocytes and peripheral blood leukocytes (PBLs) were treated with erythrocyte lysis buffer and washed in PBS. Cells were pre-coated with anti-CD16/CD32 (Biolegend) for FcR blockage. For surface staining, cells were incubated for 30 min at 4° C. with FITC-labeled anti-Gr1, anti-CD11c, and anti-CD4; PE-labeled anti F4/80, anti-CD3ε, anti-CD45R/B220, and anti-mNKp46; and biotinylated anti-CD11b and anti-CD8 that were detected with streptavidin-Cy5 (Biolegend and eBioscience). Intracellular staining of CD247 cells was performed by subjecting the cells to fixation with paraformaldehyde (1%) for 20 min at 4° C., followed by washing and permeabilization for 10 min with saponin detergent (0.1%) at room temperature (RT). Cells were then washed and incubated with FITC-labeled monoclonal anti-CD247 (H146) (Abcam), or biotinylated monoclonal anti-CD247 (H146), which were subsequently detected with streptavidin-Cy5. FoxP3 staining was performed according to the manufacturer's instructions. Samples were analyzed using FACSCalibur with Cell Quest software (BD).

[3] = tested on: MDSCs (Gr1+CD11b+); design: species or system mice; details: mouse, in vivo
[4] = tested on: MDSCs; test: MDSC infiltration in colon lamina propria and epithel, CRC mouse model; type: in vivo; details: CRC-bearing mice, tumor tissue
[5] = tested on: CD247 (ζ chain); design: species or system mice; details: mouse, in vivo
[6] = tested on: CD247 (ζ-chain); test: CD247 expression in spleen and PBLs, CRC mouse model; type: in vivo; details: CRC (AOM/DSS) mice, vs untreated CRC-bearing mice
Description: Means and SEM are shown. *, P<0.05; **, P<0.01. […] (normal).

[7] = tested on: CD247; test: Adoptive transfer of CFSE-labeled normal splenocytes, CD247 in host and donor cells; type: in vivo, mice; details: BCG-inflamed hosts, 24 h after transfer, spleen
Procedure: CFSE-labeled splenocytes from normal mice (donor cells) were adoptively transferred into mice untreated, inflamed, and inflamed treated i.p. with irinotecan (hosts). After 24 h, splenocytes from each group were harvested and stained for CD247 expression (MFI) in CD3+ T cells within the CFSE+ (donor-cell) or CFSE− (host-cell) population. Data from three independent experiments (n=4) is presented. Statistical analyses using t test indicated significant differences at 95% Cl. Means and SEM are shown. * P<0.05. Abbreviations: Ho. (host), Do. (donor), cont. (control).
CFSE-labeled splenocytes from normal mice (donor cells) were adoptively transferred into non-inflamed, inflamed, and inflamed mice treated i.p. with 5-FU (hosts). After 24 h, splenocytes from each group were harvested and stained for CD247 expression (MFI) in CD3+ T cells within the CFSE+ (donor-cell) or CFSE− (host-cell) population. Data from three independent experiments (n=4) is presented. Statistical analyses using t test indicated significant differences at 95% Cl. Means and SEM are shown. *, P<0.05. Abbreviations: Ho. (host), Do. (donor), cont. (control).
Next, the effect of etanercept treatment on the host's immune status as well as on adoptively transferred T- and NK-cells was examined. It should be noted that adoptively transferred T- and NK-cells being a treatment that is frequently used today in different immunotherapeutic regiments for various pathologies. To this end, CFSE-labeled normal splenocytes were administered, i.v., 1 day before cell harvest, at the peak of the inflammatory response (mimicking cell mediated therapies).

[8] = tested on: TNFα, IL-6, IFNγ; test: Real Time PCR of inflammatory cytokines in MDSCs and total splenocytes; type: in vivo, mice; details: relative to inflamed untreated; for mRNA levels of TNFα and IL-6: spleen-derived MDSCs and total splenocytes
[9] = tested on: CD3ε chain; design: species or system mice; details: mouse, in vivo
[10] = tested on: MDSCs; type: in vivo, mice; details: mouse, in vivo
[11] = tested on: CD247; test: CD247 expression in T cells infiltrating the colon, CRC mouse model; type: in vivo; details: CRC-bearing mice
[12] = tested on: CD247 in NK (NCR1+) cells; test: CD247 expression in gated NK (NCR1+) cells from spleen; type: in vivo; details: spleen of BCG-inflamed mice, monotherapy
Procedure: FIG. 2E. CD247 expression was measured gating on NK (NCR1+) cells derived from the spleens of each group. Data from three independent experiments is presented (n=4). Statistical analyses using t test indicated significant differences at 95% Cl. Means and SEM are shown. *, P<0.05.
as §1

Compound	MDSC percentage in PBLs [1]	MDSC percentage in spleen [1]	differentiated myeloid cells in spleen (CD11b+CD11c+ DCs, CD11b+F4/80+ macrophages) [2]	MDSC levels in peripheral blood (PBLs) [3]	MDSC levels in the spleen [3]	MDSCs infiltration in lamina propria and colon epithelial tissue [4]	CD247 expression in T cells, PBLs [5]	CD247 expression in T cells, spleen [5]	CD247 expression levels in spleen and blood [6]	CD247 expression in host and adoptively transferred donor T cells [7]	mRNA levels of TNFα and IL-6 [8]	CD3ε expression levels [9]	NO production by MDSCs [10]	ROS production by MDSCs [10]	CD247 expression levels in T cells infiltrating the colon [11]	also measured
O=c1[nH]cc(F)c(=O)[nH]1 [5-FU, 5-Fluorouracil]	significant decrease	significant decrease	significant turning towards differentiated myeloid population	significant decline; also recorded: decrease; also recorded: reduced	significant decline; also recorded: decrease; also recorded: reduced	significantly reduced	significant recovery	recovered significantly; also recorded: significant recovery	significantly recovered	clear significant increase	no significant changes	rather constant; also recorded: not down regulated	decreased	decreased	elevated	maturation of antigen presenting cells (CD80 and MHCII expression) [2]: enhanced the maturation; reduction of hROS of MDSCs [10]: better results; CD247 expression in NK (NCR1+) cells [12]: recovery from immunosuppression; also recorded: almost completely recovered
CCc1c2c(nc3ccc(OC(=O)N4CCC(N5CCCCC5)CC4)cc13)-c1cc3c(c(=O)n1C2)COC(=O)[C@]3(O)CC [Irinotecan]	no changes	significantly increased	blockage of the myeloid cell differentiation and maturation	remained high; also recorded: no changes	significantly enhanced; also recorded: significantly increased	significantly increased	further significantly decreased; also recorded: tendency of decreased expression	further significantly decreased; also recorded: strong down-regulation	low as in the case of CRC-bearing, non-treated mice	significant further decrease	no significant changes	remained unchanged; also recorded: not down regulated	significant elevation; also recorded: did not result in any further changes	significant elevation; also recorded: significantly increased	Reduced levels	mRNA level of IFNγ ([8]; MDSCs and total spleen-population): decreased; CD247 expression in NK (NCR1+) cells ([12]; listed as CPT11): low CD247 expression; CD247 expression in NK (NCR1+) cells ([12]; listed as CPT-11): remained down-regulated with no further decrease
